Data on one substance can be found in patent US20200239587A1, “SENSITIZATION OF TUMORS TO THERAPIES THROUGH ENDOGLIN ANTAGONISM” (Cedars-Sinai Medical Center, priority 2016, published 2020).

For assay [1], the system named is androgen receptor variants and RNPC1. Put plainly: Androgen receptor variants and RNPC1 expression. Format: cell-based.
In assay [2] the test system is SIRT1 expression in 22Rv1. Kind of assay: Radiation induced SIRT1 mRNA expression. Type of assay: cell-based, human. To be noted: 4 Gy. Here is the method: (§1) FIG. 21A) C4-2B were irradiated (0, 2, 4, or 6 Gy) and SIRT1 expression measured 72 hours post irradiation. FIG. 21B) C4-2B cells were irradiated (4 Gy) and SIRT1 expression measured 0, 0.5, 4, 8, 24, 48, and 72 hours post-radiation. FIG. 21C) 22Rv1 were pre-treated with 1 μg/ml IgG or TRC105 24 hours prior to irradiation with 4 Gy and compared for relative SIRT1 mRNA expression 72 hours after to irradiation. SIRT1 mRNA was normalized to GAPDH and to 0 Gy control.
(§2) Total RNA was extracted using the RNeasy kit (Qiagen). 1 μg RNA was used for cDNA synthesis using iSCRIPT cDNA synthesis kit (1708891, Bio-Rad). Quantitative RT-PCR was performed with 5 replicates using the Step One Real-Time PCR system (Applied Biosystems). Gene mRNA expression was normalized to GAPDH. Primer sequences can be found in the Table 1. For RNA-sequencing, Ion Proton AmpliSeq Transcriptome RNA Sequencing was performed achieving an average of 3M reads. We mapped an average of 88% of the reads to the human genome with Torrent Suite version 4.4.2.

The subject of assay [3] is SIRT1 expression in C4-2B. Kind of assay: Radiation induced SIRT1 mRNA expression. Type of assay: cell-based, human. As to conditions: irradiated. Here is the method: as §1, §2
Assay [4] relates to tissue recombination orthotopic xenografts of primary human CAF and Rv1. Put plainly: Tissue recombination orthotopic xenografts of primary human CAF and Rv1.
Excerpt: FIG. 13A) Mice were orthotopically grafted with tissue recombinants of CW22Rv1 and CAF. […] FIG. 13B) H&E staining was followed by immune-localization for phosphorylated-histoneH3 (PH-H3), TUNEL, and chromogranin A (ChromA). Scale bar represents 32 μm. The mitotic (PH-H3) and cell death (TUNEL) indexes were plotted. n>5, error bars are mean+/−SD and *p<0.05, **p<0.01, ***p<0.001, compared to control unless otherwise indicated.
Male beige/SCID mice (Envigo), 6-8 or 10-12 weeks old, were used for subrenal capsule or prostatic orthotopic grafting, respectively, as previously described (Banerjee et al., 2014, Oncogene 33, 4924-4931; Hayward et al., 2001, Cancer Res 61, 8135-8142). In accordance with institutional animal care and use committee approval, 2×10^5 CW22Rv1 cells and 6×10^5 stromal cells were suspended in 20 μL type I collagen to be grafted into the subrenal capsule of mice castrated after seven days and sacrificed 21 days after castration. […] Tumor volume was calculated using the modified ellipsoid formula volume3=π/6×(width)2×length.
Paraffin embedded tissues were sectioned (5 μm thick) were subjected to hematoxylin and eosin (H&E) staining and immunohistochemistry as previously reported (Placencio et al., 2008, Cancer research 68, 4709-4718). […] Anti-phosphorylated histone H3 (06-570, Millipore), anti-CD105 (NCL-CD105, Leica Microsystems), anti-Ki67 (ab16667, Abcam), and anti-chromogranin A (sc-13090, Santa Cruz Biotechnology), anti-SFRP1 (601-401-475S, Rockland Immunochemicals), and anti-survivin (2808, Cell Signaling) antibodies were incubated at 4° C. overnight. Secondary antibody development was performed with Dako Cytomation mouse or rabbit kits and visualized using 3,3′-diaminobenzidine tetrahydrochloride substrate. TUNEL staining was performed per manufacturer's protocol (S7100, Millipore). Slides were scanned with a Leica Biosystems Aperio AT. Up to five fields per tissue were quantitated with Fiji (ImageJ) using a custom written macro. Mitotic and death index were quantitated by taking the total number of positively-stained nuclei divided by the total number of nuclei.
Assay [5] deals with CW22Rv1 cells in 3D co-culture with mouse prostatic fibroblasts. Put plainly: 3D co-culture epithelial proliferation, EpCam and Ki-67 FACS. Format: cell-based, human. As to the method:
A modified version of the 3D organotypic co-culture system was performed in a collagen matrix similar to that previously reported (Stark et al., 1999, J Invest Dermatol 112, 681-691). Collagen matrix gels were prepared by mixing five volumes of rat tail collagen I with two volumes of matrigel (NCI), one volume of 10× DMEM medium (GE Healthcare Life Sciences), and one volume of FBS (Atlanta Biologicals), Rv1 and primary mouse prostatic fibroblasts were combined in a 1:3 ratio. Nylon squares were coated with collagen and placed on metal grids in a 6-well plate. Gel plugs (150 μl) were transferred onto the nylon squares and media was added to the level of the nylon mesh. After 72 hours, the cells were dissociated from the matrix with collagenase and dispersed for FACS analysis.
FACS experiments were performed with eBiosciences antibodies: anti-human Stro-1-FITC (340105), anti-human CD90-PE (12-0909-42), anti-human CD105-APC (17-1057-41), anti-mouse CD105-APC (17-1051-82), anti-human CD117-PE-Cy7 (15-1178-41), anti-human Ki67-PECy7 (25-5699-41), and anti-human EpCAM-PE (12-9326-41). All events were acquired on a BD LSRII flow cytometer in the Cedars-Sinai Medical Center FACS core installed with BD FACSDiva software. Files were analyzed using FlowJo software v10.2. EpCAM positive cells were used to identify the CW22Rv1 epithelia in three-dimensional (3D) co-cultures and further gated for CD105 or Ki67 positive cells.
CW22Rv1, C42B, and PC3 cells from ATCC were expanded as directed. Prostatectomy specimens from Cedars-Sinai Medical Center or the Greater Los Angeles Veterans Affairs were cultured to generate NAF and CAF cells using the same method, as C57BL/6 mouse wild-type prostatic fibroblasts were grown as previously reported (Franco et al., 2011, Cancer research 71, 1272-1281; Kiskowski et al., 2011, Cancer research 68, 4709-4718). TRC105 and M1043 were provided by TRACON Pharmaceuticals, Inc. (San Diego, Calif.). Enzalutamide (Xtandi) was purchased from Medivation (San Francisco, Calif.).

Assay [6] concerns NRF1, MTFA, and CPT1C in 22Rv1 cells. Kind of assay: mRNA expression of PGC1α target genes. To be noted: radiation vs radiation plus TRC105; p<0.001. Type of assay: cell-based, human. Here is the method: (§3) FIGS. 24A-24D depict that PGC1α and mitochondrial biogenesis are regulated by BMP/CD105. 22Rv1 cells were incubated with IgG or TRC105 with or without 4 Gy irradiation. All measurements were made 72 hours post radiation. FIG. 24A) Western blot for whole cell lysate, nuclear and cytoplasmic fractions were independently analyzed for PGC1α expression. Loading controls included β-actin (whole cell), lamin B (nuclear marker), and Rho A (cytoplasm marker). FIG. 24B) Immunofluorescent localization of PGC1α was visualized with DAPI nuclear counterstain. FIG. 24C) mRNA expression of PGC1α target genes, NRF1, MTFA, and CPT1C was measured. mRNA expression was normalized to GAPDH and untreated IgG 0 Gy. FIG. 24D) Mitochondrial DNA (mtDNA) was measured from total DNA extracts and normalized to nuclear DNA and compared to untreated IgG 0 Gy. Data are reported as means+/−S.D. of 3 independent experiments. (***p<0.001, ****p<0.0001).
Total RNA was extracted using the RNeasy kit (Qiagen). 1 μg RNA was used for cDNA synthesis using iSCRIPT cDNA synthesis kit (1708891, Bio-Rad). Quantitative RT-PCR was performed with 5 replicates using the Step One Real-Time PCR system (Applied Biosystems). […] For RNA-sequencing, Ion Proton AmpliSeq Transcriptome RNA Sequencing was performed achieving an average of 3M reads. We mapped an average of 88% of the reads to the human genome with Torrent Suite version 4.4.2.

The subject of the next assay is PGC1α in 22Rv1 cells. Kind of assay: PGC1α expression and sub-cellular localization. Type of assay: cell-based, human. As to conditions: 4Gy. As to the method:
as §3

A further assay concerns prostatic epithelia. Put plainly: Cancer stem cell markers and sphere-forming units. Format: cell-based. As to conditions: antagonizing endoglin.

“Also recorded” adds a separate entry of the source.

As for “TRC105: partially humanized monoclonal antibody that blocks BMP signaling; human-specific CD105 (endoglin) neutralizing antibody from Tracon Pharmaceuticals”, the “RNPC1 (RBM38) expression” value in assay [1] (TRC105) is “down regulated”. For the same substance, the “androgen receptor variants expression” value in assay [1] (TRC105) was “down regulated; also recorded: down-regulated”. Moreover, in assay [1] (antagonizing endoglin), the “Notch and IL-6 mediated ARv expression” value is “down regulate Notch and IL-6 mediated ARv expression”. For the same substance, the “radiation induced SIRT1 expression” value in assay [2] and in assay [3] was “abrogated radiation induced SIRT1 expression” each time. Also, in assay [4] (TRC105 added to ATT), the “NED, chromogranin A staining” value is listed as “reduced”. In addition, in assay [4] (TRC105 alone compared to control), the “proliferation or cell death” value is reported as “little change in either proliferation or cell death”. Also, the tumor size result is given as “smaller than vehicle” in assay [4] (TRC105 alone, p<0.05) and “reduced tumor size” in assay [4] (TRC105 treatment in castrated mice). Besides, the tumor volume result in assay [4] (TRC105 in enzalutamide treated castrated mice vs vehicle or enzalutamide (p<0.01 and <0.05)) is on record as “significant reduction in tumor volume”. Moreover, in assay [4] (castration, enzalutamide and TRC105 vs control or castrated enzalutamide group (p<0.05 and <0.001)), the “proliferation (phosphorylated-histone H3)” value is “substantially reduced proliferation”. Also, in assay [4] (castration, enzalutamide and TRC105 vs control or enzalutamide (p<0.05)), the TUNEL staining entry is given as “increased TUNEL staining”. Also, the “efficacy of combination of TRC105 with ADT” value in assay [4] (prostate cancer models, in vivo) was “superior to either one alone”. The “epithelial proliferation, antibody alone” value in assay [5] (compared to IgG control, 1 μg/mL, 72 hours) was “did not change epithelial proliferation”. Further, the “enzalutamide-induced epithelial proliferation, single antibody” value in assay [5] (enzalutamide plus M1043 or TRC105) was “did not alter enzalutamide-induced epithelial proliferation”. Besides, the “epithelial proliferation, enzalutamide with both M1043 and TRC105” value in assay [5] (triple combination) is “restored epithelial proliferation to that of control”. In addition, in assay [6], the “mRNA expression of NRF1, MTFA, and CPT1C” value is “significantly increased with radiation compared to that in the presence of TRC105”. Besides, the “radiation-induced nuclear translocation of PGC1α” value with PGC1α in 22Rv1 cells (72 hours) is “prevented radiation-induced nuclear translocation of PGC1α”. The “PGC1α expression, whole cell lysate” value in the assay with PGC1α in 22Rv1 cells (IgG or TRC105, 72 hours) is recorded as “no effect on PGC1α expression”. The “cancer stem cell markers (CD44, ALDH, Oct4, Sox) and sphere-forming units” value in the assay on prostatic epithelia is “down regulated”.
